Molecules are shown by their SMILES. ≈ marks a conversion by molar mass, not a printed value.

In this experiment the test system is prostate cancer cells (PC3). Description: MTT survival assay, PC3. The class given is cell-based. To be noted: Homo sapiens, 48 h, read-out: IC50, survival rate. The method, then: According to the present invention, human prostate cancer cell line PC3 cells were obtained from ATCC (ATCC® ^CRL-1435™) and maintained in DMEM medium supplemented with 10% FBS, 1% L-Gln and 1% AA. Cells were maintained in an atmosphere containing 5% CO2 at 37° C., and the culture medium was replaced every 2 days.
Isoplumbagin (AKOS006277326, acquired from AKos GmbH, Steinen, Germany) was dissolved in dimethyl sulfoxide (DMSO) and added to the medium, so that the final concentration of DMSO was less than 0.1%. The survival rate of isoplumbagin on OC3-IV2, U87, H1299 and PC3 cell lines was determined using the 3-(4,5-dimethylthiazol-2-yl)-2,5-diphenyltetrazolium bromide (MTT; Sigma-Aldrich) assays. 3×10^3 cells/well were seeded in 96-well plates. After incubation for 24 h, cells were treated with isoplumbagin at various concentrations (0, 1, 5, 10, 25, 50 and 100 μM) and incubated for a further 48 h. At the end of treatment, 10 μL 5 mg/mL MTT was added to each well. After incubation at 37° C. for 3 h, medium was removed and DMSO was added to each well to dissolve reduced MTT product formazan. The absorbance of dissolved formazan was measured at 550 nm wavelengths by a spectrophotometer. […]

As to `CC1=CC(=O)c2cccc(O)c2C1=O` [isoplumbagin, 5-hydroxy-3-methyl-1,4-naphthoquinone], the half-maximal inhibitory concentration (IC50) amounted to 1.13 µg/mL (≈ 6 µM).

The values are drawn from patent publication US20210113492A1, “METHOD FOR INHIBITING PROLIFERATION AND METASTASIS OF CANCER CELLS BY USING NAPHTHOQUINONE DERIVATIVE” (National Tsing Hua University, priority 2019, published 2021).
